One may read the EC50 as the midpoint of the concentration-response curve.

From patent US9868743B2, “Macrocyclic molecules as HCV entry inhibitors” (priority 2013, dated 2018) come the findings set out here.

Read-outs that look alike come from different tables or passages of the source.

For this assay, the system named is HCV pseudoparticles, genotype 1a HCV E1 and E2 envelope (H77C isolate). Nature of the assay: HCV pseudoparticle infection assay (luciferase reporter, Huh7 cells). It counts as cell-based, HCV genotype 1a (H77C). To be noted: Hepatitis C virus, Huh-7, 48 h. In general terms: Reporter assays use an easily measured gene product as a stand-in for the process of interest.

The mark [1] stands for this setting: HCV pseudoparticle entry into Huh7 cells, luciferase 2 days after infection, class symbol, read-out: EC50 (nM) 1a (H77C).
[2] abbreviates: read-out: EC50 (nM) 1a (H77C), HCV pseudoparticle entry into Huh7 cells, luciferase 2 days after infection, class symbol.
[3] abbreviates: read-out: EC50 (nM) 1a (H77C), HCV pseudoparticle entry into Huh7 cells, luciferase 2 days after infection, average of duplicates.

For the compound `CC1(C)CNC(=O)c2ccc(cc2)Nc2nc(nc(OCC(F)(F)F)n2)NCc2ccc(c(Cl)c2)OCCCN(C(=O)Oc2cccc3ccccc23)C1` [Example 2009], the concentration for a half-maximal effect (EC50) runs as follows: (HCV pseudoparticle entry into Huh7 cells, luciferase 2 days after infection, average of duplicates, read-out: EC50 (nM) 1a (H77C)) 1.26 nM; under setting [1], 0.01 to 10 nM.

Consider `CC1(C)CNC(=O)c2ccc(cc2)Nc2nc(nc(OCC(F)(F)F)n2)NCc2ccc(c(Cl)c2)OCCCN(C(=O)c2ncoc2-c2ccccc2)C1` [Example 1012], for which, under setting [2], the EC50 lay within 0.01 to 10 nM.

As for `CC1(C)CNC(=O)c2ccc(cc2)Nc2nc(nc(OCC(F)(F)F)n2)NCc2ccc(c(Cl)c2)OCCCN(S(=O)(=O)/C=C/c2ccccc2)C1` [Example 4001], the 50% effective concentration (EC50) reads like this: under setting [3], 0.555 nM; under setting [2], 0.01 to 10 nM.

Take `CC1(C)CNC(=O)c2ccc(cc2)Nc2nc(nc(OCC(F)(F)F)n2)NCc2ccc(c(Cl)c2)OCCCN(C(=O)Oc2ccccc2)C1` [Example 2006]: the EC50 under setting [1] lay in the range of 0.01 to 10 nM.

For `CC1(C)CNC(=O)c2ccc(cc2)Nc2nc(nc(OCC(F)(F)F)n2)NCc2ccc(c(Cl)c2)OCCCN(C(=O)CCc2ccncc2)C1` [Example 1014], the EC50 under setting [2] lay within 0.01 to 10 nM.

For the compound `CC1(C)CNC(=O)c2ccc(cc2)Nc2nc(nc(OCC(F)(F)F)n2)NCc2ccc(c(Cl)c2)OCCCN(C(=O)Cc2cccnc2)C1` [Example 1016], the concentration for a half-maximal effect (EC50) under setting [2] was in the range of 0.01 to 10 nM.

For `CC1(C)CNC(=O)c2ccc(cc2)Nc2nc(nc(OCC(F)(F)F)n2)NCc2ccc(c(Cl)c2)OCCCN(C#N)C1` [Example 3001], the EC50 under setting [2] fell in the range of 0.01 to 10 nM.

Turning to `C#CCOC(=O)N1CCCOc2ccc(cc2Cl)CNc2nc(nc(OCC(F)(F)F)n2)Nc2ccc(cc2)C(=O)NCC(C)(C)C1` [Example 2001], the half-maximal effective concentration (EC50) under setting [2] fell in the range of 0.01 to 10 nM.

On to `CC1(C)CNC(=O)c2ccc(cc2)Nc2nc(nc(OCC(F)(F)F)n2)NCc2ccc(c(Cl)c2)OCCCN(C(=O)/C=C/c2ccccc2)C1` [Example 1005], for which the EC50 is, setting by setting: under setting [3], 1.51 nM; under setting [2], 0.01 to 10 nM.

As to `C=CCOC(=O)N1CCCOc2ccc(cc2Cl)CNc2nc(nc(OCC(F)(F)F)n2)Nc2ccc(cc2)C(=O)NCC(C)(C)C1` [Example 2003], under setting [2], the EC50 fell in the range of 0.01 to 10 nM.

Turning to `CC1(C)CNC(=O)c2ccc(cc2)Nc2nc(nc(OCC(F)(F)F)n2)NCc2ccc(c(Cl)c2)OCCCN(C(=O)/C=C/c2ccoc2)C1` [Example 1006], the EC50 under setting [2] was in the range of 0.01 to 10 nM.

As for `CC1(C)CNC(=O)c2ccc(cc2)Nc2nc(nc(OCC(F)(F)F)n2)NCc2ccc(c(Cl)c2)OCCCN(C(=O)OCCOCc2ccccc2)C1` [Example 2013], under setting [2], the concentration for a half-maximal effect (EC50) fell in the range of 0.01 to 10 nM.

Take `CC1(C)CNC(=O)c2ccc(cc2)Nc2nc(nc(OCC(F)(F)F)n2)NCc2ccc(c(Cl)c2)OCCCN(C(=O)[C@@H]2C[C@H]2c2ccccc2)C1` [Example 1011]: under setting [2], the concentration giving a half-maximal response (EC50) fell in the range of 0.01 to 10 nM.

Turning to `COc1ccc(OC(=O)N2CCCOc3ccc(cc3Cl)CNc3nc(nc(OCC(F)(F)F)n3)Nc3ccc(cc3)C(=O)NCC(C)(C)C2)cc1` [Example 2007], the half-maximal effective concentration (EC50) under setting [1] is 0.01 to 10 nM.

As to `CC1(C)CNC(=O)c2ccc(cc2)Nc2nc(nc(OCC(F)(F)F)n2)NCc2ccc(c(Cl)c2)OCCCN(C(=O)CN)C1` [Example 1009], under setting [2], the 50% effective concentration (EC50) lay in the range of 0.01 to 10 nM.

Consider `CC1(C)CNC(=O)c2ccc(cc2)Nc2nc(nc(OCC(F)(F)F)n2)NCc2ccc(c(Cl)c2)OCCCN(C(=O)CNC(=O)OC(C)(C)C)C1` [Example 1010], for which, under setting [2], the EC50 lay within 0.01 to 10 nM.

`CC1(C)CNC(=O)c2ccc(cc2)Nc2nc(nc(OCC(F)(F)F)n2)NCc2ccc(c(Cl)c2)OCCCN(C(=O)Cc2ccccc2)C1` [Example 1002]: under setting [2], the concentration for a half-maximal effect (EC50) was in the range of 0.01 to 10 nM.

For the compound `Cc1oc(=O)oc1CN1CCCOc2ccc(cc2Cl)CNc2nc(nc(OCC(F)(F)F)n2)Nc2ccc(cc2)C(=O)NCC(C)(C)C1` [Example 5001], the EC50 is 7.67 nM under setting [3] and 0.01 to 10 nM under setting [2].

Take `CC1(C)CNC(=O)c2ccc(cc2)Nc2nc(nc(OCC(F)(F)F)n2)NCc2ccc(c(Cl)c2)OCCCN(C(=O)Oc2ccc3ccccc3c2)C1` [Example 2010]: the EC50 under setting [1] lay within 0.01 to 10 nM.

For the compound `CC(C)[C@@H]1CC[C@@H](C)C[C@H]1OC(=O)N1CCCOc2ccc(cc2Cl)CNc2nc(nc(OCC(F)(F)F)n2)Nc2ccc(cc2)C(=O)NCC(C)(C)C1` [Example 2005], the EC50 is 2.85 nM under setting [3] and 0.01 to 10 nM under setting [2].

`CC1(C)CNC(=O)c2ccc(cc2)Nc2nc(nc(OCC(F)(F)F)n2)NCc2ccc(c(Cl)c2)OCCCN(C(=O)CCCc2ccccc2)C1` [Example 1004]: under setting [2], the half-maximal effective concentration (EC50) lay within 0.01 to 10 nM.

Consider `CC1(C)CNC(=O)c2ccc(cc2)Nc2nc(nc(OCC(F)(F)F)n2)NCc2ccc(c(Cl)c2)OCCCN(C(=O)CCc2ccccc2)C1` [Example 1003], for which the EC50 under setting [2] lay within 0.01 to 10 nM.

Take `CC1(C)CNC(=O)c2ccc(cc2)Nc2nc(nc(OCC(F)(F)F)n2)NCc2ccc(c(Cl)c2)OCCCN(C(=O)CCc2nc3ccccc3s2)C1` [Example 1013]: under setting [2], the 50% effective concentration (EC50) fell in the range of 0.01 to 10 nM.

Turning to `CC1(C)CNC(=O)c2ccc(cc2)Nc2nc(nc(OCC(F)(F)F)n2)NCc2ccc(c(Cl)c2)OCCCN(C(=O)Oc2ccc([N+](=O)[O-])cc2)C1` [Example 2008], under setting [1], the half-maximal effective concentration (EC50) was in the range of 0.01 to 10 nM.

In the case of `Cc1oc(=O)oc1COC(=O)N1CCCOc2ccc(cc2Cl)CNc2nc(nc(OCc3ccc(C(F)(F)F)cc3)n2)Nc2ccc(cc2)C(=O)NCC(C)(C)C1` [Example 2015], the EC50 under setting [2] lay within 0.01 to 10 nM.

Take `CC1(C)CNC(=O)c2ccc(cc2)Nc2nc(nc(OCC(F)(F)F)n2)NCc2ccc(c(Cl)c2)OCCCN(C(=O)c2ccccc2)C1` [Example 1001]: the EC50 by setting is: under setting [3], 0.864 nM; under setting [2], 0.01 to 10 nM.

`C=COC(=O)N1CCCOc2ccc(cc2Cl)CNc2nc(nc(OCC(F)(F)F)n2)Nc2ccc(cc2)C(=O)NCC(C)(C)C1` [Example 2002]: the EC50 under setting [2] fell in the range of 0.01 to 10 nM.

As to `CC1(C)CNC(=O)c2ccc(cc2)Nc2nc(nc(OCC(F)(F)F)n2)NCc2ccc(c(Cl)c2)OCCCN(C(=O)CC(C)(C)n2cccc2)C1` [Example 1015], the concentration giving a half-maximal response (EC50) reads like this: under setting [3], 0.932 nM; under setting [2], 0.01 to 10 nM.

With `CC1(C)CNC(=O)c2ccc(cc2)Nc2nc(nc(OCC(F)(F)F)n2)NCc2ccc(c(Cl)c2)OCCCN(C(=O)/C=C/c2ccco2)C1` [Example 1007], the EC50 under setting [2] is 0.01 to 10 nM.

In the case of `Cc1oc(=O)oc1COC(=O)N1CCCOc2ccc(cc2Cl)CNc2nc(nc(OCC(F)(F)F)n2)Nc2ccc(cc2)C(=O)NCC(C)(C)C1` [Example 2014], the concentration for a half-maximal effect (EC50) under setting [2] was 0.01 to 10 nM.

`Cc1oc(=O)oc1CN1CCCOc2ccc(cc2Cl)CN(Cc2oc(=O)oc2C)c2nc(nc(OCC(F)(F)F)n2)Nc2ccc(cc2)C(=O)NCC(C)(C)C1` [Example 5002]: the EC50 under setting [2] lay in the range of 0.01 to 10 nM.

For `Cc1oc(=O)oc1COC(=O)N1CCCOc2ccc(cc2Cl)CNc2nc(nc(OCc3ccc(C(C)C)cc3)n2)Nc2ccc(cc2)C(=O)NCC(C)(C)C1` [Example 2016], the concentration giving a half-maximal response (EC50) reads like this: under setting [3], 0.109 nM; under setting [2], 0.01 to 10 nM.

On to `CC1(C)CNC(=O)c2ccc(cc2)Nc2nc(nc(OCC(F)(F)F)n2)NCc2ccc(c(Cl)c2)OCCCN(C(=O)CCC(=O)c2ccccc2)C1` [Example 1017], for which the EC50 under setting [2] fell in the range of 0.01 to 10 nM.

On to `CC1(C)CNC(=O)c2ccc(cc2)Nc2nc(nc(OCC(F)(F)F)n2)NCc2ccc(c(Cl)c2)OCCCN(C(=O)CCC(=O)O)C1` [Example 1008], for which the half-maximal effective concentration (EC50) reads like this: under setting [3], 23.9 nM; under setting [2], 10 to 1000 nM.

As to `CC1(C)CNC(=O)c2ccc(cc2)Nc2nc(nc(OCc3cccnc3)n2)NCc2ccc(c(Cl)c2)OCCCN(C(=O)OCc2cccnc2)C1` [Example 2011], under setting [2], the EC50 lay in the range of 10 to 1000 nM.

Turning to `CC(C)[C@H]1CC[C@H](C)C[C@@H]1OC(=O)N1CCCOc2ccc(cc2Cl)CNc2nc(nc(OCC(F)(F)F)n2)Nc2ccc(cc2)C(=O)NCC(C)(C)C1` [Example 2004], the EC50 under setting [2] was in the range of 0.01 to 10 nM.
